The values that follow come from EP3856749B1, “WATER-SOLUBLE, NON-AGGREGATED SILICON PHTALGCYANINE COMPOUND HAVING IN VITRO ANTICANCER EFFECT AGAINST CANCER TYPES OF LUNG, LIVER, BREST AND MELANOMA” (Karadeniz Teknik Universitesi, priority 2018, dated 2020).

Data set [1] deals with lung (A549) cancer cell lines. The experiment in a line: Cytotoxicity test (MTT), A549. It is filed as cell-based, human. To be noted: A549, 48 hours. An excerpt: (§1) Cytotoxic effects of test substances are testes by means of using human breast (BT-20), melanoma (SK-Mel 128), prostate (DU-145), liver (SNU-398) and lung (A549) cancer cell lines. Toxic effects of test substances on the healthy normal cells are studied on human fibroblast cells (HFC).
(§2) Cell suspension prepared from alpha-MEM having 10% FBS (Fetal Bovine Serum), fungizone and penicillin/streptomycin is distributed as 5×10^3 of cell in each well in the cell culture containers comprising 96 wells for the test. […] Cells are kept in a humid environment at 5% of CO2 at 37°C for 48 hours in the presence of the test substance, of which final densities are of 200-0.09 µg/mL. 10 µL from the MTT solution (3-[4,5-dimethyltioazol-2,5-diphenyltetrazolium bromide) prepared at a density of 5 mg/mL is added to each well so as to determine the cell generation rate at the end of incubation period. After culture containers are kept in the humid environment at 5% of CO2 at 37°C for 2 hours, the content is emptied and dimethyl sulphoxide (DMSO) is added in the value of 100 µL/well on cells so as to solubilize intracellular formazan crystals. After incubation for 30 minutes, the color intensity is measured in the wave length of 570/620 by means of ELISA Microplate Reader (Tecan, Sunrise).

The subject of data set [2] is liver (SNU-398) cancer cell lines. The experiment in a line: Cytotoxicity test (MTT), SNU-398. The following applies: SNU-398, 48 hours. Type of data set: cell-based, human.
Description: as §1, §2

For data set [3], the system named is supercoiled pBR322 plasmid DNA. The experiment in a line: Hydrolytic nuclease activity (agarose gel electrophoresis). Type of data set: biochemical. To be noted: 7a 6.25-50 µM; 3a 12.5-100 µM; without light. An excerpt:
Cleavage activities of supercoiled pBR322 plasmid DNA of the compounds are observed by means of using agarose-gel electrophoresis. When the supercoiled is exposed to pBR322 plasmid DNA electrophoresis, it is observed that the supercoiled form (Form I) migrates in the swiftest manner. In case of a cut occurred on a single chain, the supercoiled form creates a nicked form (Form II) moving in the slowest manner. In case both chains are cut, the linear form (Form III) migrating between Form I and Form II.
Total volume of reaction mixture contained 50 mM Tris-HCl (pH 7.0), supercoiled pBR322 plasmid DNA (250 ng), and different concentrations of compound. While the well content is loaded to 0.8 percent of agarose gel (comprising 0.25 µg/mL EB), gel loading dye also added and loaded to the gel. After addition of running buffer, it is exposed to electrophoresis by applying a current of 100 volt for 90 minutes.

The test system of data set [4] is pBR322 plasmid DNA. The experiment in a line: Oxidative nuclease activity. Type of data set: biochemical. To be noted: with oxidative agent (H2O2, AA, ME) under irradiation. As to the method:
Auxiliary reagents are added to H2O2, AA, ME medium so as to examine oxidative cleavage activities of the compounds.
In this study, pBR322 plasmid DNA is formed of buffer solution (50 mM Tris-HCl (pH 7)), auxiliary reagents and increasing concentrations of compounds, such that well contents are of 10 µL. The oxidative nuclease activity studies were performed under light irradiation. At the end of this period, after mixtures are incubated in darkness at 37 °C for an hour, reaction is stopped by means of above-mentioned methods and cleavage products are observed on the agarose gel under UV light.
Subsequent to the determination of hydrolytic nuclease activities of the compounds 7a and 3a, cleavage reactions are carried out by way of adding hydrogen peroxide (H2O2) (0.4 M), ascorbic acid (AA) (2.5 mM) and mercaptoethanol (ME) (0.4 M) so as to examine its oxidative cleavage capabilities with/without irradiation and the related results are given in Figure 4.

In a further data set the test system is topoisomerase II enzyme. The experiment in a line: Topoisomerase II inhibition (relaxation method). It is filed as biochemical. To be noted: 1 U Topo II, pBR322 plasmid DNA; 7a 12.5-37.5 µM; doxorubicin as standard. As to the method: After incubation process, samples are loaded to 0.8 % of agarose gel, exposed to electrophoresis in the running buffer by applying 40 volts of current for 3 hours and forms obtained are observed on the agarose gel under UV light.

The next data set concerns CT-DNA. The experiment in a line: Determination of DNA melting temperature. It is filed as binding. To be noted: absorbance at 260 nm; CT-DNA alone 75.57 °C. On the procedure:
Studies pertaining to determination of DNA melting temperature is carried out by means of Cary 100 Bio UV-Visible Spectrophotometer with Varian Cary Temperature Controller unit.
(§3) The absorbance is measured at 260 nm at every 0.5 °C in the range of 60-90 °C by increasing temperature of the cell comprising the basin by 1 °C every minute by means of employing thermal melting program. Values Tm are automatically calculated by the device from t(°C)-Absorbance curve of CT-DNA drawn in the presence and absence of the compound depending on its absorbance in 260 nm.
as §3, with “program of DNA melting temperature of the compound 3a.” for “program.”, “3a” for “the compound”, “nm. While the melting temperature of CT-DNA is at 75.57 °C, the melting temperature of the compounds CT-DNA + 3a is at 81.82 °C. An increase at the melting temperatures strengthens the potential that the compounds becomes an intercalative agents.” for “nm.”

Data set [5] concerns pBR322 plasmid DNA. The experiment in a line: Determination of reactive oxygen types in photonuclease activity. The following applies: 3a (50 µM), stimulation with light. Type of data set: biochemical. On the procedure:
Inhibition tests are performed in the presence of standard radical scavengers so as to determine active oxygen types effective on its cleavage in the presence of light on pBR322 plasmid DNA of complexes. For that purpose, it used ethanol (EtOH), methanol (MeOH) and dimethyl sulphoxide (DMSO) as hydroxyl radical scavenger; sodium azide and L-histidine as singlet oxygen scavenger; SOD as superoxide radical scavenger, EDTA as chelating agent and catalase as hydrogen peroxide adsorbent. It is also observed whether or not results obtained by using different types scavenging the same type of radicals support each other. Different reaction mixtures are formed by means of adding pBR322 plasmid DNA and complex in the efficient concentration and any one of above mentioned standard radical scavengers in variable concentrations into 50 mM Tris-HCl buffer. Subsequent to incubation of different reaction mixture formed at 37°C for an hour, it comprises the process of examining and monitoring these products. […]

What is called CC50 is the concentration that lowers cell viability or growth by half. As for “bis(3,5-bis{3-[3-(diethylmethylamino)phenoxy]propoxy}phenyl)methoxy)phthalocyaninato silicon (IV) Iodide [7a]”, the CC50 turned out to be 1180 nM in data set [1] and 490 nM in data set [2]. Also, the hydrolytic nuclease activity result in data set [3] is “observed for the compound 7a depending on the concentration”. Further, in the data set on pBR322 plasmid DNA [4], the oxidative cleavage activity result is reported as “significantly high cleavage activity”. Further, the “topoisomerase II inhibition effect” value in the data set on topoisomerase II enzyme is recorded as “Effective results are observed compared to doxorubicin”.
On to “bis(3,5-bis{3-[3-trimethylamino)phenoxy]propoxy}phenyl)methoxy)phthalocyaninato silicon (IV) Iodide [3a]”, for which the CC50 in data set [1] worked out at 2240 nM; in data set [2] it was 860 nM. Moreover, in the data set with CT-DNA, the “melting temperature of CT-DNA + compound” value was determined as 81.82 °C. The hydrolytic nuclease activity result in data set [3] is on record as “observed for the compound 3a depending on the concentration”. Besides, the “effect of singlet oxygen scavengers NaN3 and L-Histidine on cleavage” value in the data set with pBR322 plasmid DNA [5] is “prevent the cleavage”.
